Where two headings read alike, the source gives them in different places.
What was measured:
Type in all cases: cell-based
OV90 = test: cells; settings: Homo sapiens, OV-90, 120 h, read-out: IC50 (nM) OV90
Method: (§1) MDA-MB-231, OV90, and NCI-N87 cells at defined cell densities (1,500 cells per well, 80 µL volume) were seeded into 96-well plates. The cells were cultured overnight in a constant-temperature incubator (37°C, 5% CO2). Ecteinascidin derivative solutions at a maximum concentration of 2 mM were first prepared in DMSO, and serial 1:4 gradient dilutions were performed. 1 µL of each DMSO-prepared dilution was added to 99 µL of PBS containing 10% FBS per well and mixed thoroughly. The diluted solutions (2 µL of diluted solution and 18 µL of PBS containing 10% FBS per well) were then co-incubated with the cells (37°C, 5% CO2) for five days, after which CellTiter-Glo reagent (40 µL per well) was added, and […] values were measured using an i3x microplate reader.

MDA-MB-231 = test: cells; settings: Homo sapiens, read-out: IC50 (nM) MDA-MB-231
Method: as §1

NCI-N87 = test: cells; settings: Homo sapiens, read-out: IC50 (nM) NCI-N87
Method: as §1

[1] = test system: MDA-MB-231, OV90, and NCI-N87 cells; test: Tumor cell proliferation inhibition assay of novel ecteinascidin derivatives, summary over the three cell lines; settings: compared with trabectedin and lurbinectedin
Method: as §1, with “The” for “MDA-MB-231, OV90, and NCI-N87 cells at defined cell densities (1,500 cells per well, 80 µL volume) were seeded into 96-well plates. The”

[2] = OV90 cells, five days co-incubation
[3] = 120 h, MDA-MB-231 cells, five days co-incubation
[4] = 120 h, NCI-N87 cells, five days co-incubation

| Compound | IC50 (OV90; [2]) [nM] | IC50 (MDA-MB-231; [3]) [nM] | IC50 (NCI-N87; [4]) [nM] | in-vitro cytotoxic activities [1] | IC50 (OV90) [nM] | IC50 (MDA-MB-231; MDA-MB-231, 120 h) [nM] | IC50 (NCI-N87; NCI-N87, 120 h) [nM] |
| --- | --- | --- | --- | --- | --- | --- | --- |
| COc1ccc2[nH]c3c(c2c1)CCN[C@]31CS[C@@H]2c3c(OC(C)=O)c(C)c4c(c3[C@H](COC1=O)N1[C@@H]2[C@H]2c3c(cc(C)c(OC)c3O)C[C@@H]([C@@H]1O)N2C)OCO4 [Lurbinectedin, reference compound] | 1 to 10 | 1 to 10 | < 1 | – | – | – | – |
| COc1c(C)cc2c(c1O)[C@@H]1[C@@H]3[C@@H]4SC[C@]5(NCCc6cc(N)c(F)cc65)C(=O)OC[C@@H](c5c6c(c(C)c(OC(C)=O)c54)OCO6)N3[C@@H](C#N)[C@H](C2)N1C [P1] | < 1 | < 1 | < 1 | superior to or comparable to those of trabectedin and lurbinectedin | – | – | – |
| COc1c(C)cc2c(c1O)[C@@H]1[C@@H]3[C@@H]4SC[C@]5(NCCc6cc(N)c(N(C)C)cc65)C(=O)OC[C@@H](c5c6c(c(C)c(OC(C)=O)c54)OCO6)N3[C@@H](C#N)[C@H](C2)N1C [P5] | – | – | – | – | 1 to 10 | 1 to 10 | 1 to 10 |
| COc1c(C)cc2c(c1O)[C@@H]1[C@@H]3[C@@H]4SC[C@]5(NC[C@@H](O)c6cc(N)ccc65)C(=O)OC[C@@H](c5c6c(c(C)c(OC(C)=O)c54)OCO6)N3[C@@H](C#N)[C@H](C2)N1C [P9] | < 1 | < 1 | < 1 | superior to or comparable to those of trabectedin and lurbinectedin | – | – | – |
| COc1c(C)cc2c(c1O)[C@@H]1[C@@H]3[C@@H]4SC[C@]5(NC[C@H](O)c6cc(N)ccc65)C(=O)OC[C@@H](c5c6c(c(C)c(OC(C)=O)c54)OCO6)N3[C@@H](C#N)[C@H](C2)N1C [P10] | < 1 | < 1 | < 1 | superior to or comparable to those of trabectedin and lurbinectedin | – | – | – |
| COc1cc2c(cc1N)[C@H](O)CN[C@]21CS[C@@H]2c3c(OC(C)=O)c(C)c4c(c3[C@H](COC1=O)N1[C@@H]2[C@H]2c3c(cc(C)c(OC)c3O)C[C@@H]([C@@H]1C#N)N2C)OCO4 [P12] | < 1 | < 1 | < 1 | superior to or comparable to those of trabectedin and lurbinectedin | – | – | – |
| COc1cc2c(cc1N)[C@@H](O)CN[C@]21CS[C@@H]2c3c(OC(C)=O)c(C)c4c(c3[C@H](COC1=O)N1[C@@H]2[C@H]2c3c(cc(C)c(OC)c3O)C[C@@H]([C@@H]1C#N)N2C)OCO4 [P13] | < 1 | < 1 | < 1 | superior to or comparable to those of trabectedin and lurbinectedin | – | – | – |
| COc1cc2c(cc1N)[C@@H](OS(=O)(=O)O)CN[C@]21CS[C@@H]2c3c(OC(C)=O)c(C)c4c(c3[C@H](COC1=O)N1[C@@H]2[C@H]2c3c(cc(C)c(OC)c3O)C[C@@H]([C@@H]1C#N)N2C)OCO4 [P14] | > 200 | > 200 | > 200 | – | – | – | – |
| COc1cc2c(cc1N)C(C)(C)CN[C@]21CS[C@@H]2c3c(OC(C)=O)c(C)c4c(c3[C@H](COC1=O)N1[C@@H]2[C@H]2c3c(cc(C)c(OC)c3O)C[C@@H]([C@@H]1C#N)N2C)OCO4 [P19] | < 1 | < 1 | < 1 | superior to or comparable to those of trabectedin and lurbinectedin | – | – | – |
| COc1cc2c(cc1N)C(N(C)C)CN[C@]21CS[C@@H]2c3c(OC(C)=O)c(C)c4c(c3[C@H](COC1=O)N1[C@@H]2[C@H]2c3c(cc(C)c(OC)c3O)C[C@@H]([C@@H]1C#N)N2C)OCO4 (some centres unmarked) [P30] | < 1 | < 1 | < 1 | superior to or comparable to those of trabectedin and lurbinectedin | – | – | – |
| COc1cc2c(cc1N)C1(CC1)CN[C@]21CS[C@@H]2c3c(OC(C)=O)c(C)c4c(c3[C@H](COC1=O)N1[C@@H]2[C@H]2c3c(cc(C)c(OC)c3O)C[C@@H]([C@@H]1C#N)N2C)OCO4 [P36] | < 1 | < 1 | < 1 | superior to or comparable to those of trabectedin and lurbinectedin | – | – | – |
| COc1cc2c(cc1NC(=O)CO)CCN(C)[C@]21CS[C@@H]2c3c(OC(C)=O)c(C)c4c(c3[C@H](COC1=O)N1[C@@H]2[C@H]2c3c(cc(C)c(OC)c3O)C[C@@H]([C@@H]1C#N)N2C)OCO4 [P90] | < 1 | < 1 | < 1 | – | – | – | – |
| COc1cc2c(cc1N)[C@H](CC1CC1)CN[C@]21CS[C@@H]2c3c(OC(C)=O)c(C)c4c(c3[C@H](COC1=O)N1[C@@H]2[C@H]2c3c(cc(C)c(OC)c3O)C[C@@H]([C@@H]1C#N)N2C)OCO4 [P261] | 10 to 200 | 1 to 10 | 10 to 200 | – | – | – | – |
| COc1cc2c(cc1N)[C@@H](CC1CC1)CN[C@]21CS[C@@H]2c3c(OC(C)=O)c(C)c4c(c3[C@H](COC1=O)N1[C@@H]2[C@H]2c3c(cc(C)c(OC)c3O)C[C@@H]([C@@H]1C#N)N2C)OCO4 [P262] | 1 to 10 | 1 to 10 | 1 to 10 | – | – | – | – |
| COc1cc2c(cc1O)C(N)CN[C@]21CS[C@@H]2c3c(OC(C)=O)c(C)c4c(c3[C@H](COC1=O)N1[C@@H]2[C@H]2c3c(cc(C)c(OC)c3O)C[C@@H]([C@@H]1C#N)N2C)OCO4 (some centres unmarked) [T2] | 10 to 200 | 1 to 10 | 10 to 200 | – | – | – | – |
| COc1c(C)cc2c(c1O)[C@@H]1[C@@H]3[C@@H]4SC[C@]5(NCCc6cc(NC(=O)[C@H]7C[C@@H](O)C7)c(F)cc65)C(=O)OC[C@@H](c5c6c(c(C)c(OC(C)=O)c54)OCO6)N3[C@@H](C#N)[C@H](C2)N1C [T5] | < 1 | < 1 | 1 to 10 | – | – | – | – |
| COc1c(C)cc2c(c1O)[C@@H]1[C@@H]3[C@@H]4SC[C@]5(NCCc6c5ccc(N)c6O)C(=O)OC[C@@H](c5c6c(c(C)c(OC(C)=O)c54)OCO6)N3[C@@H](C#N)[C@H](C2)N1C [T6] | 1 to 10 | 1 to 10 | 1 to 10 | – | – | – | – |
| COc1c(C)cc2c(c1O)[C@@H]1[C@@H]3[C@@H]4SC[C@]5(NCCc6c5ccc(NC(=O)CO)c6O)C(=O)OC[C@@H](c5c6c(c(C)c(OC(C)=O)c54)OCO6)N3[C@@H](C#N)[C@H](C2)N1C [T7] | 1 to 10 | 1 to 10 | 1 to 10 | – | – | – | – |
| COc1c(C)cc2c(c1O)[C@@H]1[C@@H]3[C@@H]4SC[C@]5(NCCc6cc(N)c(O)cc65)C(=O)OC[C@@H](c5c6c(c(C)c(OC(C)=O)c54)OCO6)N3[C@@H](C#N)[C@H](C2)N1C [T8] | 1 to 10 | 1 to 10 | 1 to 10 | – | – | – | – |
| COc1c(C)cc2c(c1O)[C@@H]1[C@@H]3[C@@H]4SC[C@]5(NCCc6cc(NC(=O)CO)c(O)cc65)C(=O)OC[C@@H](c5c6c(c(C)c(OC(C)=O)c54)OCO6)N3[C@@H](C#N)[C@H](C2)N1C [T9] | 1 to 10 | 1 to 10 | 1 to 10 | – | – | – | – |
| COc1cc2c(cc1NC(=O)CO)C1(CC1)CN[C@]21CS[C@@H]2c3c(OC(C)=O)c(C)c4c(c3[C@H](COC1=O)N1[C@@H]2[C@H]2c3c(cc(C)c(OC)c3O)C[C@@H]([C@@H]1C#N)N2C)OCO4 [T11] | < 1 | < 1 | < 1 | – | – | – | – |
| COc1c(C)cc2c(c1O)[C@@H]1[C@@H]3[C@@H]4SC[C@]5(NCCc6cc(N)cc(O)c65)C(=O)OC[C@@H](c5c6c(c(C)c(OC(C)=O)c54)OCO6)N3[C@@H](C#N)[C@H](C2)N1C [T12] | 1 to 10 | 1 to 10 | 1 to 10 | – | – | – | – |
| COc1c(C)cc2c(c1O)[C@@H]1[C@@H]3[C@@H]4SC[C@]5(NCCc6cc(NC(=O)CO)cc(O)c65)C(=O)OC[C@@H](c5c6c(c(C)c(OC(C)=O)c54)OCO6)N3[C@@H](C#N)[C@H](C2)N1C [T13] | 10 to 200 | 10 to 200 | 10 to 200 | – | – | – | – |
| COc1c(C)cc2c(c1O)[C@@H]1[C@@H]3[C@@H]4SC[C@]5(NCCc6cc(N)c(OC)c(OC)c65)C(=O)OC[C@@H](c5c6c(c(C)c(OC(C)=O)c54)OCO6)N3[C@@H](C#N)[C@H](C2)N1C [T14] | 10 to 200 | 1 to 10 | 10 to 200 | – | – | – | – |
| COc1c(C)cc2c(c1O)[C@@H]1[C@@H]3[C@@H]4SC[C@]5(NCCc6cc(NC(=O)CO)c(OC)c(OC)c65)C(=O)OC[C@@H](c5c6c(c(C)c(OC(C)=O)c54)OCO6)N3[C@@H](C#N)[C@H](C2)N1C [T15] | 10 to 200 | 10 to 200 | 10 to 200 | – | – | – | – |
| CNc1cc2c(cc1OC)[C@@]1(CS[C@@H]3c4c(OC(C)=O)c(C)c5c(c4[C@H](COC1=O)N1[C@@H]3[C@H]3c4c(cc(C)c(OC)c4O)C[C@@H]([C@@H]1C#N)N3C)OCO5)NCC2 [T16] | 1 to 10 | 1 to 10 | < 1 | – | – | – | – |
| COc1c(C)cc2c(c1O)[C@@H]1[C@@H]3[C@@H]4SC[C@]5(NCC(C)(C)c6c5ccc(N)c6OC)C(=O)OC[C@@H](c5c6c(c(C)c(OC(C)=O)c54)OCO6)N3[C@@H](C#N)[C@H](C2)N1C [T18] | 1 to 10 | < 1 | < 1 | – | – | – | – |

Reference: patent EP4778932A1 (priority 2023, dated 2025)
